From ChEMBL document CHEMBL3739329, “Synthesis and biological evaluation of nitric oxide-releasing hybrids from gemcitabine and phenylsulfonyl furoxans as anti-tumor agents” (Medchemcomm, 2015)
Activity calls are given as the source filed them. The calls are words filed in the database; no cut-off is given here.

Key:
A549 = assay: Cytotoxicity against human A549 cells assessed as inhibition of cell proliferation after 48 hrs by MTT assay; format: functional, cell-based; details: A549, 48 h
HepG2 [1] = assay: Cytotoxicity against human HepG2 cells assessed as inhibition of cell proliferation after 48 hrs by MTT assay; format: functional, cell-based; details: HepG2, 48 h
[2] = Cytotoxicity against human HCT116 cells assessed as inhibition of cell proliferation after 48 hrs by MTT assay; format: functional, cell-based; details: HCT-116, 48 h
[3] = Cytotoxicity against human SW620 cells assessed as inhibition of cell proliferation after 48 hrs by MTT assay; format: functional, cell-based; details: SW-620, 48 h
[4] = Cytotoxicity against human SGC7901 cells assessed as inhibition of cell proliferation after 48 hrs by MTT assay; format: functional, cell-based; details: SGC-7901, 48 h
HepG2 [5] = assay: Induction of apoptosis in human HepG2 cells assessed as reduction in PARP-1 protein level at 0.5 to 2 uM incubated for 48 hrs by Western blot analysis; format: functional, cell-based
HCT-116 [6] = assay: Induction of nitric oxide release in human HCT116 cells incubated for 24 hrs by DAF-FM DA staining-based flow cytometric analysis; format: functional, cell-based
HepG2 [7] = assay: Induction of apoptosis in human HepG2 cells assessed as reduction in PARP-1 protein level at 2 uM incubated for 48 hrs by Western blot analysis; format: functional, cell-based
HepG2 [8] = assay: Induction of apoptosis in human HepG2 cells assessed as reduction in Bcl-2 protein level incubated for 48 hrs by Western blot analysis; format: functional, cell-based
HepG2 [9] = assay: Induction of apoptosis in human HepG2 cells at 2 uM incubated for 48 hrs by FITC-Annexin V/PI staining-based flow cytometric analysis; format: functional
SW-620 [10] = assay: Induction of nitrite/nitrate production in human SW620 cells at 100 uM incubated for 24 hrs by Griess assay; format: functional, cell-based
HepG2 [11] = assay: Induction of apoptosis in human HepG2 cells assessed as increase in activated caspase-3 protein level at 0.5 to 2 uM incubated for 48 hrs by Western blot analysis; format: functional, cell-based
HepG2 [12] = assay: Induction of apoptosis in human HepG2 cells assessed as increase in Bax protein level incubated for 48 hrs by Western blot analysis; format: functional, cell-based
SW-620 [13] = assay: Induction of nitric oxide release in human SW620 cells incubated for 24 hrs by DAF-FM DA staining-based flow cytometric analysis; format: functional, cell-based
HepG2 [14] = assay: Cytotoxicity against human HepG2 cells assessed as inhibition of cell proliferation at 2 to 4 uM after 48 hrs in presence of haemoglobin; format: functional, cell-based
[15] = Cytotoxicity against human LO2 cells assessed as inhibition of cell proliferation after 48 hrs by MTT assay; format: cell-based; details: l02, 48 h
HepG2 [16] = assay: Induction of NO production in human HepG2 cells at 100 uM incubated for 24 hrs by Griess assay; format: functional, cell-based
HepG2 [17] = assay: Cytotoxicity against human HepG2 cells assessed as inhibition of cell proliferation at 0.5 to 50 uM after 48 hrs in presence of dipyridamole by MTT assay; format: functional, cell-based
HepG2 [18] = assay: Induction of nitric oxide release in human HepG2 cells incubated for 24 hrs by DAF-FM DA staining-based flow cytometric analysis; format: functional, cell-based
HCT-116 [19] = assay: Induction of NO production in human HCT116 cells at 100 uM incubated for 24 hrs by Griess assay; format: functional, cell-based
HepG2 [20] = assay: Induction of apoptosis in human HepG2 cells incubated for 48 hrs by FITC-Annexin V/PI staining-based flow cytometric analysis; format: functional, cell-based
SW-620 [21] = assay: Induction of nitric oxide release in human SW620 cells at 6 uM incubated for 24 hrs by DAF-FM DA staining-based flow cytometric analysis; format: functional, cell-based
HCT-116 [22] = assay: Induction of nitric oxide release in human HCT116 cells at 6 uM incubated for 24 hrs by DAF-FM DA staining-based flow cytometric analysis; format: functional, cell-based
HepG2 [23] = assay: Induction of nitric oxide release in human HepG2 cells at 6 uM incubated for 24 hrs by DAF-FM DA staining-based flow cytometric analysis; format: functional, cell-based

Structure (SMILES) | IC50 (A549) | IC50 (HepG2 [1]) | IC50 [2] | IC50 [3] | IC50 [4] | Activity (SW-620 [10]) | Activity (HepG2 [16]) | Activity (HCT-116 [19]) | also measured
O=C(CCC(=O)OCCOc1no[n+]([O-])c1S(=O)(=O)c1ccccc1)Nc1ccn([C@@H]2O[C@H](CO)[C@@H](O)C2(F)F)c(=O)n1 | > 12.5 µM | > 12.5 µM | 10.3 µM | > 12.5 µM | > 12.5 µM | – | – | – | –
O=C(CCC(=O)OCC#CCOc1no[n+]([O-])c1S(=O)(=O)c1ccccc1)Nc1ccn([C@@H]2O[C@H](CO)[C@@H](O)C2(F)F)c(=O)n1 | 3.27 µM | 1.02 µM | 1.19 µM | 1.3 µM | 1.36 µM | Active | Active | Active | Activity (HepG2 [5]): Active; Activity (HCT-116 [6]): Dose-dependent effect; Activity (HepG2 [7]): Active; Activity (HepG2 [8]): Dose-dependent effect; Activity (HepG2 [9]): 78.3%; Activity (HepG2 [11]): Active; Activity (HepG2 [12]): Dose-dependent effect; Activity (SW-620 [13]): Dose-dependent effect; Activity (HepG2 [14]): inactive; Activity [15]: Non-toxic; Activity (HepG2 [17]): Active; Activity (HepG2 [18]): Dose-dependent effect; Activity (HepG2 [20]): Active
CCOC(=O)N1CCN(/[N+]([O-])=N/Oc2ccc([N+](=O)[O-])cc2[N+](=O)[O-])CC1 | – | 7.42 µM | 3.75 µM | 5.16 µM | – | – | – | – | Activity (SW-620 [21]): Active; Activity (HCT-116 [22]): Active; Activity (HepG2 [23]): Active
O=C(CCC(=O)Nc1ccn([C@@H]2O[C@H](CO)[C@@H](O)C2(F)F)c(=O)n1)NCCOc1no[n+]([O-])c1S(=O)(=O)c1ccccc1 | > 12.5 µM | 10.5 µM | > 12.5 µM | 9.16 µM | 9.92 µM | – | – | – | –
O=C(CCC(=O)OCCCCOc1no[n+]([O-])c1S(=O)(=O)c1ccccc1)Nc1ccn([C@@H]2O[C@H](CO)[C@@H](O)C2(F)F)c(=O)n1 | 5.18 µM | 2.44 µM | 3.57 µM | 2.49 µM | 6.13 µM | Active | Active | Active | –
O=C(CCC(=O)Nc1ccn([C@@H]2O[C@H](CO)[C@@H](O)C2(F)F)c(=O)n1)NCCCCOc1no[n+]([O-])c1S(=O)(=O)c1ccccc1 | 6.04 µM | 3.22 µM | 3.06 µM | 4.35 µM | 5.1 µM | Active | Active | Active | –
O=C(CCC(=O)OCCOCCOc1no[n+]([O-])c1S(=O)(=O)c1ccccc1)Nc1ccn([C@@H]2O[C@H](CO)[C@@H](O)C2(F)F)c(=O)n1 | 11.5 µM | 7.05 µM | 7.86 µM | > 12.5 µM | 10.7 µM | – | – | – | –
CN(CCOc1no[n+]([O-])c1S(=O)(=O)c1ccccc1)C(=O)CCC(=O)Nc1ccn([C@@H]2O[C@H](CO)[C@@H](O)C2(F)F)c(=O)n1 | 10.1 µM | 8.39 µM | 10.8 µM | 5.21 µM | 5.85 µM | – | – | – | –
O=C(CCC(=O)OCCCOc1no[n+]([O-])c1S(=O)(=O)c1ccccc1)Nc1ccn([C@@H]2O[C@H](CO)[C@@H](O)C2(F)F)c(=O)n1 | 9.92 µM | 5.32 µM | 6.89 µM | 5 µM | 9.26 µM | Active | Active | Active | –
O=C(CCC(=O)Nc1ccn([C@@H]2O[C@H](CO)[C@@H](O)C2(F)F)c(=O)n1)NCCCOc1no[n+]([O-])c1S(=O)(=O)c1ccccc1 | 8.9 µM | 6.18 µM | 4.1 µM | 4.97 µM | 6.71 µM | Active | Active | Active | –
O=C(CCC(=O)Oc1ccc(CCOc2no[n+]([O-])c2S(=O)(=O)c2ccccc2)cc1)Nc1ccn([C@@H]2O[C@H](CO)[C@@H](O)C2(F)F)c(=O)n1 | > 12.5 µM | 9.21 µM | 8.78 µM | > 12.5 µM | > 12.5 µM | – | – | – | –
O=C(CCC(=O)OCCCCCOc1no[n+]([O-])c1S(=O)(=O)c1ccccc1)Nc1ccn([C@@H]2O[C@H](CO)[C@@H](O)C2(F)F)c(=O)n1 | > 12.5 µM | > 12.5 µM | 11.3 µM | 9.67 µM | 10.5 µM | – | – | – | –
CC(CCOC(=O)CCC(=O)Nc1ccn([C@@H]2O[C@H](CO)[C@@H](O)C2(F)F)c(=O)n1)Oc1no[n+]([O-])c1S(=O)(=O)c1ccccc1 (stereo partly drawn) | 7.82 µM | 3.25 µM | 4.69 µM | 3.98 µM | 7.44 µM | Active | Active | Active | –
O=C(O)CCC(=O)OCC#CCOc1no[n+]([O-])c1S(=O)(=O)c1ccccc1 | > 12.5 µM | 8.73 µM | 9.86 µM | 9.09 µM | 11.5 µM | – | – | – | –
O=C(CCC(=O)Nc1ccn([C@@H]2O[C@H](CO)[C@@H](O)C2(F)F)c(=O)n1)NCCCCCOc1no[n+]([O-])c1S(=O)(=O)c1ccccc1 | > 12.5 µM | 10.7 µM | > 12.5 µM | > 12.5 µM | 11.8 µM | – | – | – | –
Nc1ccn([C@@H]2O[C@H](CO)[C@@H](O)C2(F)F)c(=O)n1 [GEMCITABINE] | 2.69 µM | 2.97 µM | 7.33 µM | 5.62 µM | 3.58 µM | inactive | inactive | inactive | Activity (HepG2 [7]): Active; Activity (HepG2 [9]): Active; Activity (HepG2 [17]): inactive
